Paper doi:10.1101/2023.10.24.563163v2, “Targeting cancer with small molecule pan-KRAS degraders” (biorxiv, 2024)
pIC50: −log10 of the molar value. Like-named read-outs stand apart in the source and are kept apart here.

Columns and labels:
HiBiT-KRAS^G12D [1] = target: T1, HiBiT-KRAS^G12D (Homo sapiens, UniProt P01116, G12D); parameters: HiBiT-KRAS degradation, split nanoluciferase lytic detection; settings: degrader
T1 construct: HiBiT-tagged
Experimental: (§1) This formula was derived from the Growth Inhibition (GI) calculation used in the National Cancer Institute’s NCI-60 high-throughput screen. KRAS Degradation Assays via Detection of Split Nanoluciferase (HiBiT) To assess PROTAC-mediated degradation of HiBiT-tagged KRAS constructs, cells were seeded at 25 000 cells per well in culture medium into white bottom opaque 96-well plates (Perkin Elmer cat no. 5680). Plates were incubated at 37 °C, 5% CO2 in a humidified incubator over night to allow the cells to adhere. Test compounds (10 mM stock in DMSO) were added at logarithmic dose series using the HP Digital Dispenser D300 (Tecan), normalizing for added DMSO. […] Following incubation, 100 µL per well Promega Nano-Glo HiBiT lytic detection reagent mix (Promega Nano-Glo HiBiT Lytic Detection System #N3050), prepared according to the manufacturer´s instructions in the kit, were added. To allow for adequate cell lysis, plates were incubated on an orbital shaker for 15 min. and further incubated 30 min. at room temperature. Upon completion of cell lysis, luminescence was measured using an Envision plate reader using the Ultrasensitive Luminescence Protocol for 96-well plates. Luminescence levels were normalized by the values obtained with DMSO-treated samples and plotted as percent of DMSO control. DC50 values were computed using a three parametric logistic model. Dmax values represent the maximal extent of degradation observed and are stated as percent of control treatments.

KRAS^G12D = KRAS^G12D (Homo sapiens, UniProt P01116, G12D); assay: cell-based; parameters: endogenous; KRAS degradation by capillary electrophoresis immunodetection; settings: GP2d; read-out: Dmax 24 h GP2d [%]
Experimental: (§2) Protein Detection by Capillary Electrophoresis Cells (50 000) were seeded the day before treatment into 96-well clear-flat bottom plates and incubated overnight (37 °C, humidified tissue culture incubator, 5% CO2). Compounds were added from DMSO stock solution using a digital dispenser and cells are incubated at 37 °C as specified (24 hours for KRAS degradation, 6 hours for determination of pERK levels). At the end of the incubation, medium was removed, cells washed with ice cold PBS, PBS removed and 50 µL lysis buffer (Meso Scale Discovery #R60TX-2) supplemented with 1:100 protease inhibitor solution, 1:100 phosphatase inhibitor I, 1:100 phosphatase inhibitor II (Meso Scale Discovery #R70AA-1), 0.5 µL/mL Benzonase (Novagen #70664-3) and 10 mM dithiothreitol added to each well. Plates with lysis buffer were immediately transferred to -80 °C freezer for at least 2 hours and then thawed on ice. Lysates were transferred to a 96 well V-bottom plate and insoluble debris was pelleted by centrifugation for 20 min. at 4 000 rpm. 40 µL of the supernatant were transferred to a fresh Eppendorf PCR plate. Analysis of protein levels was conducted using the Wes System, ProteinSimple (https://www.bio-techne.com/) as specified by the manufacturer. Briefly, Wes Master Mix (12-230 kDa WES Separation Module, 8 × 25 capillary cartridges, ProteinSimple #SM-W004) and molecular weight markers were prepared as specified in the manufacturer’s recommendations. To detect primary antibodies, anti-rabbit (Protein Simple #DM-001) or anti-mouse (Protein Simple #DM-002) detection modules were used. 7.2 µL lysate + 1.8 µL master mix were combined and heated to 95 °C for 5 min. […] Next, we set out to test the ability of a single pan-KRAS degrading molecule, compound 4, to selectively suppress oncogenic signaling and proliferation in cancer cell lines driven by diverse KRAS mutants. To this end, we first confirmed degradation of KRAS by compound 4 in KRAS-dependent (GP2d, SW620 and NCI-H358 expressing KRAS^G12D, - G12V or -G12C, respectively) as well as in KRAS independent (A-375, HEK293) cell lines (Fig. 3A, fig. S4A). […] Both inhibition and degradation repressed the established markers of MAPK signaling pERK (fig. S4B-D) and DUSP6 (Fig. 3B, fig. S4E) in KRAS dependent cell lines. […] Neither degradation nor inhibition had appreciable antiproliferative effects in the KRAS independent cell lines A-375 and HEK293 (Fig. 3C, fig. S4F).

KRAS^G12V = KRAS^G12V (Homo sapiens, UniProt P01116, G12V); assay: cell-based; parameters: endogenous; KRAS degradation by capillary electrophoresis immunodetection; settings: SW-620; read-out: Dmax 24 h SW620 [%]
Experimental: as §2

HiBiT-KRAS^G12D [2] = target: T1, HiBiT-KRAS^G12D; assay: cell-based; parameters: HiBiT-KRAS degradation, split nanoluciferase lytic detection; settings: GP5d; read-out: Dmax 24 h GP5d HiBiT [%]
Experimental: as §1

KRAS^G12C = KRAS^G12C (Homo sapiens, UniProt P01116, G12C); assay: cell-based; parameters: endogenous; KRAS degradation by capillary electrophoresis immunodetection; settings: NCI-H358; read-out: Dmax 24 h NCI-H358 [%]
Experimental: as §2

GP2d = assay: cells; parameters: Inhibition of cell proliferation, 5 days; settings: 120 h, read-out: IC50 Proliferation GP2d
From the text: (§3) Next, we set out to test the ability of a single pan-KRAS degrading molecule, compound 4, to selectively suppress oncogenic signaling and proliferation in cancer cell lines driven by diverse KRAS mutants. To this end, we first confirmed degradation of KRAS by compound 4 in KRAS-dependent (GP2d, SW620 and NCI-H358 expressing KRAS^G12D, - G12V or -G12C, respectively) as well as in KRAS independent (A-375, HEK293) cell lines (Fig. 3A, fig. S4A). […] Both inhibition and degradation repressed the established markers of MAPK signaling pERK (fig. S4B-D) and DUSP6 (Fig. 3B, fig. S4E) in KRAS dependent cell lines. […] Neither degradation nor inhibition had appreciable antiproliferative effects in the KRAS independent cell lines A-375 and HEK293 (Fig. 3C, fig. S4F). […] Pan-KRAS degradation impacts MAPK signaling and cancer cell proliferation.

SW620 = assay: cells; parameters: Inhibition of cell proliferation, 5 days; settings: Homo sapiens, SW-620, 120 h; read-out: IC50 Proliferation SW620
From the text: as §3

KRAS^G12D, sequence (P01116 whole entry G12D): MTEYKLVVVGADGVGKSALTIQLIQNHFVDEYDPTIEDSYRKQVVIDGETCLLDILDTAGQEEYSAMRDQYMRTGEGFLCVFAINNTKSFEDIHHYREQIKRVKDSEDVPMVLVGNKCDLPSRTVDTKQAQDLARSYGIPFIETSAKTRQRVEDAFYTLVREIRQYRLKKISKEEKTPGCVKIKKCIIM
T1 sequence (P01116 whole entry G12D): as above
KRAS^G12V, sequence (P01116 whole entry G12V): as the sequence (P01116 whole entry G12D) above, with D12V counted along it
KRAS^G12C, sequence (P01116 whole entry G12C): as the sequence (P01116 whole entry G12D) above, with D12C counted along it

Compound	DC50 (HiBiT-KRAS^G12D [1]; read-out: DC50 24 h GP5d HiBiT) [nM]	Dmax (KRAS^G12D) [%]	Dmax (KRAS^G12V) [%]	Dmax (HiBiT-KRAS^G12D [2]) [%]	Dmax (KRAS^G12C) [%]	pIC50 (GP2d)	pIC50 (SW620)	DC50 (HiBiT-KRAS^G12D [1]; 10% human serum, read-out: DC50 24 h GP5d HiBiT 10% human serum) [nM]	DC50 (HiBiT-KRAS^G12D [1]; 10% mouse serum, read-out: DC50 24 h GP5d HiBiT 10% mouse serum) [nM]
Cc1ncsc1-c1ccc([C@H](CO)NC(=O)[C@@H]2C[C@@H](O)CN2C(=O)[C@H](C(C)C)n2cc(OCCCCN3CCCN(c4nccc(-c5noc([C@@]6(C)CCCc7sc(N)c(C#N)c76)n5)n4)[C@@H](C)C3)nn2)cc1 [compound 7, ACBI3]	0.7	99	83	95	–	–	–	–	–
Cc1ncsc1-c1ccc(CNC(=O)C2CC(O)CN2C(=O)C(c2cc(OCCCCN3CCCN(c4nccc(-c5noc(C6(C)CCCc7sc(N)c(C#N)c76)n5)n4)C(C)C3)no2)C(C)C)cc1 (stereo not shown) [compound 5]	–	< 15	< 15	–	< 25	5.76	6.00	–	–
Cc1ncsc1-c1ccc(CNC(=O)[C@@H]2C[C@@H](O)CN2C(=O)[C@@H](NC(=O)CCCCCN2CCCN(c3nccc(-c4noc([C@@]5(C)CCCc6sc(N)c(C#N)c65)n4)n3)[C@@H](C)C2)C(C)(C)C)cc1 [compound 3]	68.1	96	88	95	81	6.43	6.64	–	–
Cc1ncsc1-c1ccc(CNC(=O)[C@@H]2C[C@@H](O)CN2C(=O)[C@@H](c2cc(OCCCCN3CCCN(c4nccc(-c5noc([C@@]6(C)CCCc7sc(N)c(C#N)c76)n5)n4)[C@@H](C)C3)no2)C(C)C)cc1 [compound 4]	1.4	96	89	94	86	8.08	7.96	1.9	33.1
Cc1ncsc1-c1ccc(CNC(=O)[C@@H]2C[C@@H](O)CN2C(=O)[C@@H](NC(=O)COCCCN2CCCN(c3nccc(-c4noc([C@@]5(C)CCCc6sc(N)c(C#N)c65)n4)n3)[C@@H](C)C2)C(C)(C)C)cc1 [compound 2]	494	–	100	100	–	–	–	–	–
